Molecular target: APJ receptor (Homo sapiens (Human), UniProt P35414)
Assay: [35S]GTPγS binding assay on membranes from CHO cells stably expressing human APJ receptor
Assay type: biochemical
Settings: membranes of CHO cells stably expressing human APJ receptor, means of several independent experiments, read-out: Activity hAPJ SPA EC50 IP
How it was run: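 Membranes from CHO cells stably expressing human APJ were incubated with 0.2 nM [35S]GTPγS and ligands for 90 min at RT in 20 mM HEPES pH 7.5, 5 mM MgCl2, 200 mM NaCl, 3 μM GDP, 0.1% BSA with WGA PS beads. Nonspecific binding was set with 100 μM GTPγS. EC50 came from non-linear regression.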

Chain of APJ receptor (P35414 whole entry): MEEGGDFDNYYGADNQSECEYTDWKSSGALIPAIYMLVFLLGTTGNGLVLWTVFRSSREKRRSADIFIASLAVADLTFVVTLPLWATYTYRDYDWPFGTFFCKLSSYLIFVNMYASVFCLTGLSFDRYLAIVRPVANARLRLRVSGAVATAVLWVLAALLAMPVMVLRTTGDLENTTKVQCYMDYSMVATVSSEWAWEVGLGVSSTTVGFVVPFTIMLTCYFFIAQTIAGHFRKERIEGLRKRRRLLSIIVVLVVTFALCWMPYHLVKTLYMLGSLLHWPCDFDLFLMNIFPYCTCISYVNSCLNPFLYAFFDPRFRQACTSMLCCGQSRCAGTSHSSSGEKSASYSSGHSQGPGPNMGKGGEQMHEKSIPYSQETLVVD

| Structure (SMILES) | EC50 [nM] |
| --- | --- |
| COc1cccc(OC)c1-n1c(NS(=O)(=O)CCN2Cc3ccccc3C2=O)nnc1-c1ccco1 [Example 2.0, N-(4-(2,6-Dimethoxyphenyl)-5-(2-furanyl)-4H-1,2,4-triazol-3-yl)-2-(1-oxo-1,3-dihydro-2H-isoindol-2-yl)ethanesulfonamide] | 13000 |
| COc1ncnc(OC)c1-n1c(NS(=O)(=O)[C@@H](C)[C@H](OC)c2ncc(C)cn2)nnc1-c1ccc(C)o1 [Example 3.0, (1R,2S)—N-(4-(4,6-dimethoxypyrimidin-5-yl)-5-(5-methylfuran-2-yl)-4H-1,2,4-triazol-3-yl)-1-methoxy-1-(5-methylpyrimidin-2-yl)propane-2-sulfonamide] | 0.31 |
| COc1cccc(OC)c1-n1c(NS(=O)(=O)CCc2ccc(C#N)cn2)nnc1-c1ccc(C)o1 [Example 19.0, 2-(5-cyano-2-pyridinyl)-N-(4-(2,6-dimethoxyphenyl)-5-(5-methyl-2-furanyl)-4H-1,2,4-triazol-3-yl)ethanesulfonamide] | 0.29 |
| COc1cccc(OC)c1-n1c(NS(=O)(=O)CCc2ncc(Cl)cc2N2CCC2=O)nnc1-c1ccco1 [Example 27.0, 2-(5-chloro-3-(2-oxo-1-azetidinyl)-2-pyridinyl)-N-(4-(2,6-dimethoxyphenyl)-5-(2-furanyl)-4H-1,2,4-triazol-3-yl)ethanesulfonamide] | 0.46 |
| COc1cccc(OC)c1-n1c(NS(=O)(=O)CCc2ccc(C#N)cn2)nnc1-c1ccco1 [Example 35.0, 2-(5-cyano-2-pyridinyl)-N-(4-(2,6-dimethoxyphenyl)-5-(2-furanyl)-4H-1,2,4-triazol-3-yl)ethanesulfonamide] | 3.5 |
| COc1cccc(OC)c1-n1c(NS(=O)(=O)CCc2ncc(C)cn2)nnc1-c1ccco1 [Example 39.0, N-(4-(2,6-dimethoxyphenyl)-5-(2-furanyl)-4H-1,2,4-triazol-3-yl)-2-(5-methyl-2-pyrimidinyl)ethanesulfonamide] | 6.6 |
| COc1cccc(OC)c1-n1c(NS(=O)(=O)[C@@H](C)[C@H](O)c2ccc(C#N)cc2F)nnc1-c1ccc(C)o1 [Example 75.0] | 0.55 |
| COc1cccc(OC)c1-n1c(NS(=O)(=O)[C@H](CCO)Cc2ncc(C)cn2)nnc1-c1ccc(C)o1 [Example 80.0] | 1.1 |
| CCc1ccc(-c2nnc(NS(=O)(=O)CCc3ncc(F)cn3)n2-c2c(OC)cccc2OC)o1 [Example 98.0, N-(4-(2,6-dimethoxyphenyl)-5-(5-ethyl-2-furanyl)-4H-1,2,4-triazol-3-yl)-2-(5-fluoro-2-pyrimidinyl)ethanesulfonamide] | 0.45 |
| COc1cccc(OC)c1-n1c(NS(=O)(=O)[C@H](C)[C@@H](C)c2ncc(F)cn2)nnc1-c1ccc(C)o1 [Example 109.0] | 0.87 |
| COc1cccc(OC)c1-n1c(NS(=O)(=O)[C@@H](C)[C@@H](C)c2ncc(F)cn2)nnc1-c1ccc(C)o1 [Example 110.0] | 0.97 |
| COc1cccc(OC)c1-n1c(NS(=O)(=O)CCc2ccc(F)cc2C#N)nnc1-c1ccc(C)o1 [Example 119.0, 2-(2-Cyano-4-fluorophenyl)-N-(4-(2,6-dimethoxyphenyl)-5-(5-methylfuran-2-yl)-4H-1,2,4-triazol-3-yl)ethanesulfonamide] | 0.15 |
| COCCO[C@H](c1ncc(C)cn1)[C@H](C)S(=O)(=O)Nc1nnc(-c2ccc(C)o2)n1-c1c(OC)cccc1OC [Example 120.0, (1R,2S)—N-(4-(2,6-Dimethoxyphenyl)-5-(5-methylfuran-2-yl)-4H-1,2,4-triazol-3-yl)-1-(2-methoxyethoxy)-1-(5-methylpyrimidin-2-yl)propane-2-sulfonamide] | 0.15 |
| COc1cccc(OC)c1-n1c(NS(=O)(=O)CCc2ncc(F)cn2)nnc1-c1ccc(C)o1 [Example 125.0, N-(4-(2,6-Dimethoxyphenyl)-5-(5-methylfuran-2-yl)-4H-1,2,4-triazol-3-yl)-2-(5-fluoropyrimidin-2-yl)ethanesulfonamide] | 0.34 |
| CC[C@H](Cc1ncc(F)cn1)S(=O)(=O)Nc1nnc(-c2ccc(C)o2)n1-c1c(OC)cccc1OC [Example 128.0, (R)-N-(4-(2,6-dimethoxyphenyl)-5-(5-methylfuran-2-yl)-4H-1,2,4-triazol-3-yl)-1-(5-fluoropyrimidin-2-yl)butane-2-sulfonamide and (R)-N-(4-(2,6-dimethoxyphenyl)-5-(5-methylfuran-2-yl)-4H-1,2,4-triazol-3-yl)-1-(5-fluoropyrimidin-2-yl)butane-2-sulfonamide] | 1.1 |
| COc1cccc(OC)c1-n1c(NS(=O)(=O)CCc2ccc(F)cc2C#N)nnc1-c1ccc(C(F)(F)F)o1 [Example 131.0, 2-(2-Cyano-4-fluorophenyl)-N-(4-(2,6-dimethoxyphenyl)-5-(5-(trifluoromethyl)furan-2-yl)-4H-1,2,4-triazol-3-yl)ethanesulfonamide] | 3.9 |
| COc1cccc(OC)c1-n1c(NS(=O)(=O)[C@@H](C)[C@H](C)c2cnc(C)cn2)nnc1-c1ccc(C)o1 [Example 148.0, (2S,3R)—N-(4-(2,6-Dimethoxyphenyl)-5-(5-methyl-2-furanyl)-4H-1,2,4-triazol-3-yl)-3-(5-methyl-2-pyrazinyl)-2-butanesulfonamide] | 0.19 |
| CCOC(=O)[C@@H]1C[C@@H](S(=O)(=O)Nc2nnc(-c3ccco3)n2-c2c(OC)cccc2OC)CN(c2ncc(F)cn2)C1 [Example 158.0, Ethyl (3R,5R)-5-((4-(2,6-dimethoxyphenyl)-5-(2-furanyl)-4H-1,2,4-triazol-3-yl)sulfamoyl)-1-(5-fluoro-2-pyrimidinyl)-3-piperidinecarboxylate or ethyl (3S,5S)-5-((4-(2,6-dimethoxyphenyl)-5-(2-furanyl)-4H-1,2,4-triazol-3-yl)sulfamoyl)-1-(5-fluoro-2-pyrimidinyl)-3-piperidinecarboxylate] | 0.4 |
| COc1ccccc1-n1c(NS(=O)(=O)[C@@H](C)[C@H](C)c2ncc(F)cn2)nnc1-c1ccc(C)o1 [Example 172.0, (2S,3R)-3-(5-Fluoro-2-pyrimidinyl)-N-(4-(2-methoxyphenyl)-5-(5-methyl-2-furanyl)-4H-1,2,4-triazol-3-yl)-2-butanesulfonamide] | 1.2 |
| Cc1ccc(-c2nnc(NS(=O)(=O)[C@@H](C)[C@H](C)c3ncc(F)cn3)n2C2CCOCC2)o1 [Example 182.0, (2S,3R)-3-(5-Fluoro-2-pyrimidinyl)-N-(5-(5-methyl-2-furanyl)-4-(tetrahydro-2H-pyran-4-yl)-4H-1,2,4-triazol-3-yl)-2-butanesulfonamide] | 26 |
| COc1c(Br)cc(Br)c(OC)c1-n1c(NS(=O)(=O)[C@@H](C)[C@H](C)c2ncc(F)cn2)nnc1-c1ccc(C)o1 [Example 189.0, (2S,3R)—N-(4-(3,5-Dibromo-2,6-dimethoxyphenyl)-5-(5-methyl-2-furanyl)-4H-1,2,4-triazol-3-yl)-3-(5-fluoro-2-pyrimidinyl)-2-butanesulfonamide] | 110 |
| COc1cccc(OC)c1-n1c(NS(=O)(=O)[C@H]2CCCN(c3ncc(F)cn3)C2)nnc1-c1ccco1 [Example 206.0, (3S)—N-(4-(2,6-Dimethoxyphenyl)-5-(2-furanyl)-4H-1,2,4-triazol-3-yl)-1-(5-fluoro-2-pyrimidinyl)-3-piperidinesulfonamide] | 4.8 |
| COc1cccc(OC)c1-n1c(NS(=O)(=O)[C@H](C)[C@@H](O)c2ncc(F)cn2)nnc1-c1ccc(C)o1 [Example 211.0, (1S,2R)-N-(4-(2,6-dimethoxyphenyl)-5-(5-methylfuran-2-yl)-4H-1,2,4-triazol-3-yl)-1-(5-fluoropyrimidin-2-yl)-1-hydroxypropane-2-sulfonamide] | 4.1 |
| COc1cccc(OC)c1-n1c(NS(=O)(=O)CCc2ncc(Cl)cc2C2=CCN(C)CC2)nnc1-c1ccco1 [Example 214.0, 2-(5-Chloro-1′-methyl-1′,2′,3′,6′-tetrahydro-3,4′-bipyridin-2-yl)-N-(4-(2,6-dimethoxyphenyl)-5-(2-furanyl)-4H-1,2,4-triazol-3-yl)ethanesulfonamide] | 0.21 |
| COc1cccc(OC)c1-n1c(NS(=O)(=O)CCc2ncc(Cl)cc2C2=CCOCC2)nnc1-c1ccco1 [Example 215.0, 2-(5-Chloro-3-(3,6-dihydro-2H-pyran-4-yl)-2-pyridinyl)-N-(4-(2,6-dimethoxyphenyl)-5-(2-furanyl)-4H-1,2,4-triazol-3-yl)ethanesulfonamide] | 0.22 |
| COc1cccc(OC)c1-n1c(NS(=O)(=O)CCc2ncc(Cl)cc2CN2CCOCC2)nnc1-c1ccco1 [Example 219.0, 2-(5-Chloro-3-(4-morpholinylmethyl)-2-pyridinyl)-N-(4-(2,6-dimethoxyphenyl)-5-(2-furanyl)-4H-1,2,4-triazol-3-yl)ethanesulfonamide] | 0.26 |
| COc1cccc(OC)c1-n1c(NS(=O)(=O)CCc2ncc(Cl)cc2C2=CCNCC2)nnc1-c1ccco1 [Example 220.0, 2-(5-Chloro-1′,2′,3′,6′-tetrahydro-3,4′-bipyridin-2-yl)-N-(4-(2,6-dimethoxyphenyl)-5-(2-furanyl)-4H-1,2,4-triazol-3-yl)ethanesulfonamide] | 0.27 |
| COc1cccc(OC)c1-n1c(NS(=O)(=O)CCc2ncc(Cl)cc2-c2cccnc2)nnc1-c1ccco1 [Example 221.0, 2-(5-Chloro-3,3′-bipyridin-2-yl)-N-(4-(2,6-dimethoxyphenyl)-5-(2-furanyl)-4H-1,2,4-triazol-3-yl)ethanesulfonamide] | 0.3 |
| COc1cccc(OC)c1-n1c(NS(=O)(=O)CCc2ncc(Cl)cc2-c2ccncc2)nnc1-c1ccco1 [Example 222.0, 2-(5-chloro-3,4′-bipyridin-2-yl)-N-(4-(2,6-dimethoxyphenyl)-5-(2-furanyl)-4H-1,2,4-triazol-3-yl)ethanesulfonamide] | 0.31 |
| COc1cccc(OC)c1-n1c(NS(=O)(=O)CCc2ncc(Cl)cc2-c2cc[nH]n2)nnc1-c1ccco1 [Example 223.0, 2-(5-chloro-3-(1H-pyrazol-3-yl)-2-pyridinyl)-N-(4-(2,6-dimethoxyphenyl)-5-(2-furanyl)-4H-1,2,4-triazol-3-yl)ethanesulfonamide] | 0.32 |

Reference: patent publication US10736883B2, “Triazole furan compounds as agonists of the APJ receptor” (AMGEN INC., priority 2016, dated 2020)
